In ChEMBL document CHEMBL1201862, “PubChem BioAssay data set” (2004):
Calls of active or inactive are those of the source.

Columns and labels:
[1] = biological target: Delta-type opioid receptor (Homo sapiens, UniProt P41143); assay: Counterscreen for agonists of heterodimerization of the mu 1 (OPRM1) and delta 1 (OPRD1) opioid receptors: Luminescence-based cell-based high throughput dose response assay to identify agonists of OPRD1 homodimerization. [Related pubchem assays (depositor defined):AID504326, AID504355, AID504692, AID504904, AID504905]; format: functional
Chain of Delta-type opioid receptor (P41143 whole entry): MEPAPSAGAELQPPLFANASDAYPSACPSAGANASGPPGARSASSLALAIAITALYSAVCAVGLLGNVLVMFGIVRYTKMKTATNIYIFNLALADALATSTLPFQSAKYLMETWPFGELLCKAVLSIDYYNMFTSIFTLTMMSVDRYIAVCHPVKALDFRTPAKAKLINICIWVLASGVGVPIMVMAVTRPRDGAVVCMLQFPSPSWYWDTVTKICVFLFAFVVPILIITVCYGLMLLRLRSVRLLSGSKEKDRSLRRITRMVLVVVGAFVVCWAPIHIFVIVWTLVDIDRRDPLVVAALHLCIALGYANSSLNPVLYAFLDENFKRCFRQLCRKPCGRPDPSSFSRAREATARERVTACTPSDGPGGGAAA

Mu-type opioid receptor = Mu-type opioid receptor (Homo sapiens, UniProt P35372); assay: Counterscreen for agonists of heterodimerization of the mu 1 (OPRM1) and delta 1 (OPRD1) opioid receptors: Luminescence-based cell-based high throughput dose response assay to identify agonists of OPRM1 homodimerization.; format: functional;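 further: U2OS cells expressing OPRM1 and beta-arrestin as split beta-galactosidase partners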
Chain of Mu-type opioid receptor (P35372 whole entry): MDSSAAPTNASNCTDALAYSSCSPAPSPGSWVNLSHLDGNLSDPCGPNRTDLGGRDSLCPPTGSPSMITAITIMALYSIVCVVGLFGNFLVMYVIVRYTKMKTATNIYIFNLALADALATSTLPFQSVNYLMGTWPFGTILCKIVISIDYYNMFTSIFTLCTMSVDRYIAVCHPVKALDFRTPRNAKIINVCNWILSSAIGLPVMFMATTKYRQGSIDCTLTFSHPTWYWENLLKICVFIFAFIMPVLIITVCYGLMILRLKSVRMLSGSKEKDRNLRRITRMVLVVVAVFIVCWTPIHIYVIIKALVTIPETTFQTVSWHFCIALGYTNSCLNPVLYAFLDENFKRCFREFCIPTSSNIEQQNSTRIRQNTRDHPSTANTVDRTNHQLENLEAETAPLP

[2] = biological target: 5-hydroxytryptamine receptor 5A (Homo sapiens, UniProt P47898); assay: Counterscreen for agonists of OPRM1-OPRD1 heterodimerization: luminescence-based cell-based high throughput dose response assay to identify agonists of 5-hydroxytryptamine (serotonin) 5A receptor (HTR5A). [Related pubchem assays (depositor defined):AID504326, AID504355, AID504692, AID504904, AID504905]; format: functional
Chain of 5-hydroxytryptamine receptor 5A (P47898 whole entry): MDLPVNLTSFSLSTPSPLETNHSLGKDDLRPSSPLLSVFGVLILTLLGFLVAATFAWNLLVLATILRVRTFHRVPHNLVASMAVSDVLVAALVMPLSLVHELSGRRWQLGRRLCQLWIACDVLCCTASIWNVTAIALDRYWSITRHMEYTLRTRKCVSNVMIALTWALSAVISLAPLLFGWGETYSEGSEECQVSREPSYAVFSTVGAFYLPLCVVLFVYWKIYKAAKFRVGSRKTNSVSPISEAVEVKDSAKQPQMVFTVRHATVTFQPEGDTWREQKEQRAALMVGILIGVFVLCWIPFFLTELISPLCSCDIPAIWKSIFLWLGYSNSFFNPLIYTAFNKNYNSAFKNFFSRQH

HEK293 [3] = assay: inhibition of NOD1-driven NF-kB reporter – cell-based, luminescence, uHTS, primary screen (AID 1578); format: functional; details: Homo sapiens
HEK293 [4] = assay: cells; format: functional, cell-based; details: Homo sapiens
[5] = biological target: T1, Heat shock factor protein 1 (Mus musculus, UniProt P38532); assay: decrease of HSF1-responsive luciferase luminescence – cell-based, NIH3T3, dose retest, confirmation (AID 2382); format: functional;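 further: NIH3T3 fibroblasts with HSF1-driven luciferase reporter stressed by proteasome inhibitor MG132; luminescence from HSF1-driven luciferase expression after 8 hours of MG132 stress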
T1 sequence (P38532 whole entry): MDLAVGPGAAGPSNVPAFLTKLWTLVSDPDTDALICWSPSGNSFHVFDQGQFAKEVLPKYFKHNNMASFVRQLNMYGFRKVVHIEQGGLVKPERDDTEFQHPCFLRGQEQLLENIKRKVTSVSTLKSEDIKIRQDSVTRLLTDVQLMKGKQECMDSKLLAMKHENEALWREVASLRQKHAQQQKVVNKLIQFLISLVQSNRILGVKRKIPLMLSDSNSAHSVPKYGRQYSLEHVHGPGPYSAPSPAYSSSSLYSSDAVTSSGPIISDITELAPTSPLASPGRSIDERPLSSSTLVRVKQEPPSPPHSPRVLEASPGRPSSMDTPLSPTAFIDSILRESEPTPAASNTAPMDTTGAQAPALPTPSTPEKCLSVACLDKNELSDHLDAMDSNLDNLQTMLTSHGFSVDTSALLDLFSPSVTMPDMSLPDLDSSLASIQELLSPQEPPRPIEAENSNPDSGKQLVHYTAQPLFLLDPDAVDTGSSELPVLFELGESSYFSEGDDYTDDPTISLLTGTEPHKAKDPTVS

HEK293 [6] = assay: cells; format: functional, cell-based; details: Homo sapiens; remark: listed apart in the source
[7] = biological target: Nucleotide-binding oligomerization domain-containing protein 2 (Homo sapiens, UniProt Q9HC29); assay: inhibition of NOD2-driven NF-kB reporter – cell-based, luminescence, uHTS, HEK293 (AID 1566); format: functional
Chain of Nucleotide-binding oligomerization domain-containing protein 2 (Q9HC29 whole entry, the tested form may be a part): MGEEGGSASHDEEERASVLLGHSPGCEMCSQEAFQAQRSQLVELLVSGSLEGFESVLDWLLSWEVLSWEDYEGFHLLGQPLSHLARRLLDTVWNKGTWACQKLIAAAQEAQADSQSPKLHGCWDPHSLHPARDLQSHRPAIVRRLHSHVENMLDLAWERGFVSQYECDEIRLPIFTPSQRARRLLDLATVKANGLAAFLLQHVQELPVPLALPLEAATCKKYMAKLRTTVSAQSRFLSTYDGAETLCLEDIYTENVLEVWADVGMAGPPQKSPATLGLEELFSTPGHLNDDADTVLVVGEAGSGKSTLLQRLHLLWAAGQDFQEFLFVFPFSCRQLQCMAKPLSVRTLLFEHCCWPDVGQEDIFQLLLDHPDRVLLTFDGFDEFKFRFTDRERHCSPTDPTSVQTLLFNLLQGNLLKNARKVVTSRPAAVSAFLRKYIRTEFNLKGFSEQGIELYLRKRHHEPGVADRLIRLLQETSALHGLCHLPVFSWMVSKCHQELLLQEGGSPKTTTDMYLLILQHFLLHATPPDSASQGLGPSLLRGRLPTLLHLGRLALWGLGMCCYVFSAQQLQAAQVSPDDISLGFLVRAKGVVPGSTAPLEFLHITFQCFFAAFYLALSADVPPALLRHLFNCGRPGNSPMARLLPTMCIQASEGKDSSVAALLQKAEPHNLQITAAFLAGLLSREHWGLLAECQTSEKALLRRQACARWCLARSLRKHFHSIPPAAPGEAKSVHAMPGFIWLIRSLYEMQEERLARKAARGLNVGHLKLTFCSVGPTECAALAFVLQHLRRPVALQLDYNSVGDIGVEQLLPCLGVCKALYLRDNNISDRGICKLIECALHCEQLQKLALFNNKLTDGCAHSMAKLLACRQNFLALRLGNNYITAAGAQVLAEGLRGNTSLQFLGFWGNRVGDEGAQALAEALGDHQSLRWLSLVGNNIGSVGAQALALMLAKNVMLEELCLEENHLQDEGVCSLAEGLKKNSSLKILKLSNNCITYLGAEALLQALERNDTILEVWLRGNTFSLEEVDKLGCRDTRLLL

HEK293 [8] = assay: NOD2 signaling inhibitors in MDP-stimulated cells, cell-based, uHTS, luminescence (AID 2001); format: functional; details: Homo sapiens
HEK293 [9] = assay: cells; format: functional, cell-based; details: Homo sapiens; remark: listed apart in the source
Tumor necrosis factor = Tumor necrosis factor (Homo sapiens, UniProt P01375); assay: analog potency on TNFa NF-kB signaling – cell-based, revised, SAR follow-up (AID 2337); format: functional
Chain of Tumor necrosis factor (P01375 whole entry, the tested form may be a part): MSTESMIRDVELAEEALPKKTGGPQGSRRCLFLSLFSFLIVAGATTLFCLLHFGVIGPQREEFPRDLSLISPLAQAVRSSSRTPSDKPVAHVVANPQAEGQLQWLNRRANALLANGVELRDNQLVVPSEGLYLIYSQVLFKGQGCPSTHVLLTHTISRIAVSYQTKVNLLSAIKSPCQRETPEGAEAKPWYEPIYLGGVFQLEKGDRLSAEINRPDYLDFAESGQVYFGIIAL

[10] = biological target: T2, Nucleotide-binding oligomerization domain-containing protein 1 (Homo sapiens, UniProt Q9Y239); assay: blockers of NOD1 pathway activity – revised, SAR follow-up (AID 2333); format: functional
T2 sequence (Q9Y239 whole entry): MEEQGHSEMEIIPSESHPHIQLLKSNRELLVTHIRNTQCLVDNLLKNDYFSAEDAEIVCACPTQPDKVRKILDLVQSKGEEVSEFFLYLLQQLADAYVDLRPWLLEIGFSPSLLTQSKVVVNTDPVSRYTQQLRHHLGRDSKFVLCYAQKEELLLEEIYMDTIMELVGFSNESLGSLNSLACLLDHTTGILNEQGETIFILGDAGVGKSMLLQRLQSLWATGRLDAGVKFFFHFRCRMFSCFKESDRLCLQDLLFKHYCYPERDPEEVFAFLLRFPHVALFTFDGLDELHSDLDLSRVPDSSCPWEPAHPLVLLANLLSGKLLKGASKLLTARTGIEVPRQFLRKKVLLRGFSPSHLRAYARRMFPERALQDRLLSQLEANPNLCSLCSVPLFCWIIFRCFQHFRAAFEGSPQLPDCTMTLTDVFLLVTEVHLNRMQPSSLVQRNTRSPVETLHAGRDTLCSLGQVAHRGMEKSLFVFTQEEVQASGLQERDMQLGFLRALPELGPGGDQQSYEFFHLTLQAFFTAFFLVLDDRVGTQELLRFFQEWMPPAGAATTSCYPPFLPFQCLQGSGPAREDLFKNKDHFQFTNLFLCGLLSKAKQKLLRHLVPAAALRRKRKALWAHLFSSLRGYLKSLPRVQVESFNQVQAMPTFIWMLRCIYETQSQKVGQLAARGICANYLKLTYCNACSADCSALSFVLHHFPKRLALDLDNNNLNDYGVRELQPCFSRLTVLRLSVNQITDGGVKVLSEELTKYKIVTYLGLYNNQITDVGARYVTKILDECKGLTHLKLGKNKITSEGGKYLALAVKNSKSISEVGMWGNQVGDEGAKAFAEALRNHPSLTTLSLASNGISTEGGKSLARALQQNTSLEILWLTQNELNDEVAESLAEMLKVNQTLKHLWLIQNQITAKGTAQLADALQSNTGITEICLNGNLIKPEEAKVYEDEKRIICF

[11] = reduction of Shn3 3'UTR-driven luciferase in osteoblasts – cell-based, Clone20 osteoblasts, firefly luciferase, cherry-picked, dose response (AID 624132); format: functional;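 further: firefly luciferase luminescence from reporter carrying the Shn3 3'UTR in osteoblasts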
[12] = non-specific 3'UTR reporter inhibition in Clone20-Shn3RL – cell-based, Renilla luciferase, cherry-picked, counter-screen for Shn3 inhibitor project, dose response (AID 624133); format: functional
HEK293 [13] = assay: cells; details: Homo sapiens
[14] = biological target: T3, Short transient receptor potential channel 4 (Mus musculus, UniProt Q9QUQ5); assay: calcium entry via TRPC4 opening agents – cell-based, HEK293 TRPC4/mu-opioid, Fluo-4 calcium, dose response (AID 434937); format: functional
T3 sequence (Q9QUQ5 whole entry): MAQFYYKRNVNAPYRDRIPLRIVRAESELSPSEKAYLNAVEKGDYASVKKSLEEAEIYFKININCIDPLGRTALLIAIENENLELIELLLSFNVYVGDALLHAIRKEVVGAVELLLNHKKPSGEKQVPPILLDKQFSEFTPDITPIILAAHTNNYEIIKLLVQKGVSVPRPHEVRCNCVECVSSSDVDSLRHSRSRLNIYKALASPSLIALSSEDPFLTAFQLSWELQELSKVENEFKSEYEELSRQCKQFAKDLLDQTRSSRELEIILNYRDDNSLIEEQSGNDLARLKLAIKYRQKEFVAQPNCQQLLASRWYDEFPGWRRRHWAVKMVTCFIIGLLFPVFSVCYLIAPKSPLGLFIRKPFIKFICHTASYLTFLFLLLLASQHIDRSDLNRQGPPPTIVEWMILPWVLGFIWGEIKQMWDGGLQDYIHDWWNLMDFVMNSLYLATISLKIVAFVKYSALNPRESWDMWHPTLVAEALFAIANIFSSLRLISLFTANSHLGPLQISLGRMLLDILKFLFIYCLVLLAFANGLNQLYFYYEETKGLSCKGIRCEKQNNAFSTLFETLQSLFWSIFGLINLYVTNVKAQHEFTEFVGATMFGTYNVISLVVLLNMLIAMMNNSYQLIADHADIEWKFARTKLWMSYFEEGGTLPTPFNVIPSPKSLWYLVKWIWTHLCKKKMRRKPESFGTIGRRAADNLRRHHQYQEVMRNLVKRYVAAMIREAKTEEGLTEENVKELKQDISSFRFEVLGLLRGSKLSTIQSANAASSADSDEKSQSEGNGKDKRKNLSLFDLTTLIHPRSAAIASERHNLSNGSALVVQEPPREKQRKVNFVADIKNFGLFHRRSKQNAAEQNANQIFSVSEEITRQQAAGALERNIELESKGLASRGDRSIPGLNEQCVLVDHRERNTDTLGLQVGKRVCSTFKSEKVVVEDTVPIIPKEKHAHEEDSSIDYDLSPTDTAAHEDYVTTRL

Cytochrome P450 2C19 = Cytochrome P450 2C19 (Homo sapiens, UniProt P33261); assay: Cytochrome panel assay with activity outcomes. Panel member name: p450-cyp2c19 Compounds with AC50 equal or less than 10 uM are considered active; format: functional
Chain of Cytochrome P450 2C19 (P33261 whole entry): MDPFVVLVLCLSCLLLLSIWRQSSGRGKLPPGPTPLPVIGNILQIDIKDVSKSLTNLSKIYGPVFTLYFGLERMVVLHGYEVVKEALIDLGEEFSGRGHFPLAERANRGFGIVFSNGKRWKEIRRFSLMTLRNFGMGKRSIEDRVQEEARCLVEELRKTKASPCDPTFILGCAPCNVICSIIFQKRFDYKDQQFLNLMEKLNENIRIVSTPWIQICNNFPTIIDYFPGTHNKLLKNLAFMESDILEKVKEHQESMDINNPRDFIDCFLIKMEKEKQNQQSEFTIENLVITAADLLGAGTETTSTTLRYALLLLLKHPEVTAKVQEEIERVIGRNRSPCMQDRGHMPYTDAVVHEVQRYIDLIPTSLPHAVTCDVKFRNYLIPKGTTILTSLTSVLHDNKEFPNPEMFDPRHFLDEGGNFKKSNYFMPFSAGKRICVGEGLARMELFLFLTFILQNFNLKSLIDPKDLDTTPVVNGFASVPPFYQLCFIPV

Cytochrome P450 2D6 = Cytochrome P450 2D6 (Homo sapiens, UniProt P10635);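 further: CYP2D6 member of a cytochrome P450 panel assay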
Chain of Cytochrome P450 2D6 (P10635 whole entry): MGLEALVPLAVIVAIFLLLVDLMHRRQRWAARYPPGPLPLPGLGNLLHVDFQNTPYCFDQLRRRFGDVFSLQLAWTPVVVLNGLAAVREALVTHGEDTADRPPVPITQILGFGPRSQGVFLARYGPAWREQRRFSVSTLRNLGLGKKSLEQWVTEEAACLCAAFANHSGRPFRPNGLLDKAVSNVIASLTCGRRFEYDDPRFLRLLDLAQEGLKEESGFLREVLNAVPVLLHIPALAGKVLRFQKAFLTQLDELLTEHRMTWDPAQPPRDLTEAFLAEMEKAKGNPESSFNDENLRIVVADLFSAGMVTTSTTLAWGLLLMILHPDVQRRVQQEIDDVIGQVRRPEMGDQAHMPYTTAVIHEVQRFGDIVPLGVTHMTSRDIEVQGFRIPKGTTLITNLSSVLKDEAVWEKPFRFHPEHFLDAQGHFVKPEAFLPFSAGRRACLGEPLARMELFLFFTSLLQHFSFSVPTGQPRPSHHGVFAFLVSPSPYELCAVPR

Cytochrome P450 1A2 = biological target: T4, Cytochrome P450 1A2 (Homo sapiens, UniProt P05177);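 further: PubChem cytochrome P450 panel assay, CYP1A2 panel member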
T4 sequence (P05177 whole entry): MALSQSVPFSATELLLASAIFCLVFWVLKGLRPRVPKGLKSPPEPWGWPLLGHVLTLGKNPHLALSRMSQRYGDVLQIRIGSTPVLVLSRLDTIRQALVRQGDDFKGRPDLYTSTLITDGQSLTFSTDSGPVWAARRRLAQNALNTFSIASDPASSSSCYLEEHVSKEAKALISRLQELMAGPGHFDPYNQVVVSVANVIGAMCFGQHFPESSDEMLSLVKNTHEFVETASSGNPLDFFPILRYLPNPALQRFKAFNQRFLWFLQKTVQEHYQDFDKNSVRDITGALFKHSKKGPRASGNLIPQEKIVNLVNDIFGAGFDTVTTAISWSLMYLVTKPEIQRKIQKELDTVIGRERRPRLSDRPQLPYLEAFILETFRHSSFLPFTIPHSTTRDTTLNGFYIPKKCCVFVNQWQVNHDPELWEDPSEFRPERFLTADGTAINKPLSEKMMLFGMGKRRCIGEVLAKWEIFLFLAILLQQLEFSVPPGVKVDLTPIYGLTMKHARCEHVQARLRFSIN

Cytochrome P450 3A4 = Cytochrome P450 3A4 (Homo sapiens, UniProt P08684);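 further: CYP3A4 tested as one member of a cytochrome P450 panel screen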
Chain of Cytochrome P450 3A4 (P08684 whole entry): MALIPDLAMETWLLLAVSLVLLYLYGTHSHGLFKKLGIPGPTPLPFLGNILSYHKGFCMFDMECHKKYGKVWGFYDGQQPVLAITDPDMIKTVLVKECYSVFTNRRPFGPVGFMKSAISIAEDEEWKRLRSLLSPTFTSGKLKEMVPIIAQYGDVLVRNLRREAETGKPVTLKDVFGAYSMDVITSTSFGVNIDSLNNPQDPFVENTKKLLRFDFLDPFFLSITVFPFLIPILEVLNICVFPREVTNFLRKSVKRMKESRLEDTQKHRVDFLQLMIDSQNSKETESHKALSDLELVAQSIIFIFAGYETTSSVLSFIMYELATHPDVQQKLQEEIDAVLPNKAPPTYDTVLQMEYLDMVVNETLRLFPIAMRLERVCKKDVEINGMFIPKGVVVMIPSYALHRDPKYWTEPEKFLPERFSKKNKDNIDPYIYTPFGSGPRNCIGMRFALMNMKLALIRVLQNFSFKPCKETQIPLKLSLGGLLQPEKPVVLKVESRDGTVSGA

[15] = luciferase reporter signal suppression in cells – H4 neuroglioma cells, luminescence, dose response (AID 1990); format: functional, cell-based
[16] = Luminescence Cell-Based Dose Response HTS to Identify Inhibitors of 5'UTR Stem-Loop Driven Prion Protein mRNA Translation in H4 Neuroglioblastoma Cells. [Related pubchem assays: 1827 (Project Summary), 1813 (Primary HTS)]; format: functional
[17] = alpha-synuclein stem-loop luciferase translation blockers – H4 neuroglioma cells, luminescence, confirmation (AID 1988); format: functional, cell-based

COC(=O)C1=C(C)N(CCCC(=O)O)C(=O)NC1c1ccccc1OS(=O)(=O)c1ccccc1[N+](=O)[O-] (stereo not drawn)
inactive: EC50 [1] 15.5 µM | EC50 (Mu-type opioid receptor) > 92.5 µM | EC50 [2] > 92.5 µM

Cc1cc(C(=O)COC(=O)c2ccccc2Br)c(C)n1CC1CCCO1 (stereo not drawn)
active: IC50 (HEK293 [4]) < 0.312 µM | EC50 [5] < 0.16 µM | EC50 [7] 0.46 µM | IC50 (HEK293 [8]) 0.036 µM | IC50 (Tumor necrosis factor) 0.0456 µM | IC50 [10] 4.8 µM | AC50 [12] 21.4 µM
inactive: EC50 (HEK293 [3]) > 20 µM | IC50 (HEK293 [6]) > 20 µM | IC50 (HEK293 [9]) > 20 µM | AC50 [11] > 70 µM | IC50 (HEK293 [13]) > 20 µM

COc1ccc(C(CNc2ncnc3sc(C)c(C)c23)N(C)C)cc1 (stereo not drawn)
active: EC50 [14] 0.473 µM
inactive: EC50 [1] 70.5 µM | EC50 (Mu-type opioid receptor) > 92.4 µM | EC50 [2] > 92.4 µM

O=C(c1sc2ccccc2c1Cl)N(Cc1ccco1)C1CCS(=O)(=O)C1 (stereo not drawn)
inactive: EC50 [1] 29.2 µM | EC50 (Mu-type opioid receptor) > 92.5 µM | EC50 [2] > 92.5 µM
active: EC50 [14] 2.11 µM

O=C(O)CCC(=O)Nc1ccc(C(=O)N2CCCCC2)cc1
inconclusive: AC50 (Cytochrome P450 2C19) | AC50 (Cytochrome P450 2D6)

COc1ccc(C(C)=O)c(OC(=O)c2ccco2)c1
inconclusive: AC50 (Cytochrome P450 2C19; read-out: AC50) 7.94 µM | AC50 (Cytochrome P450 2D6)

CC(C)n1nnc2ccccc2c1=O
inconclusive: AC50 (Cytochrome P450 2C19; read-out: AC50) 39.8 µM | AC50 (Cytochrome P450 1A2) 11.2 µM | AC50 (Cytochrome P450 2D6) | AC50 (Cytochrome P450 3A4)

COc1cc(C(=O)Nc2sc3c(c2C(=O)O)CCC(C)C3)cc(OC)c1OC (stereo not drawn)
inactive: IC50 (HEK293 [4]) > 20 µM | IC50 (HEK293 [6]) > 20 µM | IC50 (HEK293 [9]) > 20 µM | IC50 (HEK293 [13]) > 20 µM
active: EC50 (HEK293 [3]) 4.16 µM | EC50 [17] 12.8 µM | EC50 [7] 2.24 µM | IC50 (HEK293 [8]) 9.76 µM | IC50 (Tumor necrosis factor) 7.41 µM | IC50 [10] 5.19 µM
> 120 µM (not active): EC50 [15] | EC50 [16]
